Reference: patent publication US20100105729A1, “ARYL-SUBSTITUTED HETEROCYCLIC PDE4 INHIBITORS AS ANTI-INFLAMMATORY AGENTS” (KALYPSYS, INC., priority 2006, published 2010)

biological target: T1, PDE4B (Homo sapiens, UniProt Q07343); assay: PDE4 IMAP Assay; assay type: biochemical; details: catalytic domain of PDE4B, fluorescence polarization
T1 construct: hexa-histidine (His6) (N); made in house
Source text: Compounds may be screened for functional potency in in vitro biochemical assays for their ability to inhibit the activity of phosphodiesterase (PDE) enzymes. A commercial PDE assay, Molecular Device's PDE IMAP assay, was modified and utilized to measure the inhibitory activity of compounds on PDE isoforms. The IMAP technology is based on the high affinity binding of phosphate by immobilized metal (MIII) coordination complexes on nanoparticles. This IMAP “binding reagent” complexes with phosphate groups on the nucleotide monophosphates generated in the reaction. Such binding causes a change in the rate of the molecular motion of the nucleotide, and results in an increase in the fluorescence polarization value observed for the fluorescent label attached to the substrate. PDE inhibitors prevent the generation of nucleotide monophosphates and the subsequent increase in polarization value observed for the fluorescent label attached to the substrate. The catalytic domain of PDE4B was fused to an amino-terminus hex-histadine affinity tag and purified. PDE4B enzyme was incubated with compounds for 10 minutes. Fluorescently labeled cyclic AMP substrates were then added to the PDE enzyme mix and incubated for 2 hours at room temperature. IMAP binding reagent was then added to the enzyme mix, incubated for 10-30 minutes and fluorescent polarization of the fluorescently labeled substrate was read either with the Perkin Elmer Viewlux or Molecular Devices Acquest or Analyst. Roflumilast and Rolipram are the positive controls used in the assay.

T1 sequence (Q07343 330-659 limits assumed, species assumed): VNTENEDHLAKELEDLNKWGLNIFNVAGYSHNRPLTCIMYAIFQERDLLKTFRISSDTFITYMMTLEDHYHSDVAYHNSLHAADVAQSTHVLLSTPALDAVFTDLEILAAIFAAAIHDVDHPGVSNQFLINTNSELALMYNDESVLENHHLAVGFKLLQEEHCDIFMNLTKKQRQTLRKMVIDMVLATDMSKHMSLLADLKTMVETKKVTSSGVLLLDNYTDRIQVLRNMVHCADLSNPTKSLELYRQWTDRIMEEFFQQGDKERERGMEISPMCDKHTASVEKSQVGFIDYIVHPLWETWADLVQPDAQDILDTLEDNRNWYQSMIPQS

SMILES | inhibition at 10 µM
COc1ccc(C2=NN(C(=O)c3cccs3)C(c3cccc(OC)c3OC)C2)cc1OC (stereo not shown) [Example 38, (5-(2,3-dimethoxyphenyl)-3-(3,4-dimethoxyphenyl)-4,5-dihydro-1H-pyrazol-1-yl)(thiophen-2-yl)methanone] | ≥ 50%
COc1ccc(C2=NN(C(=O)c3cc(OC)c(OC)c(OC)c3)C(c3ccc(Cl)cc3)C2)cc1OC (stereo not shown) [Example 43, (5-(4-chlorophenyl)-3-(3,4-dimethoxyphenyl)-4,5-dihydro-1H-pyrazol-1-yl)(3,4,5-trimethoxyphenyl)methanone] | ≥ 50%
COc1ccc(C2=NN(C(=O)c3cc(OC)c(OC)c(OC)c3)C(c3ccc(Br)cc3)C2)cc1OC (stereo not shown) [Example 44, (5-(4-bromophenyl)-3-(3,4-dimethoxyphenyl)-4,5-dihydro-1H-pyrazol-1-yl)(3,4,5-trimethoxyphenyl)methanone] | ≥ 50%
COc1ccc(C2=NN(C(=O)c3cc(OC)c(OC)c(OC)c3)C(c3ccc(C)cc3)C2)cc1OC (stereo not shown) [Example 45, (3-(3,4-dimethoxyphenyl)-5-p-tolyl-4,5-dihydro-1H-pyrazol-1-yl)(3,4,5-trimethoxyphenyl)methanone] | ≥ 50%
COc1ccc(C2=NN(S(=O)(=O)c3ccc(C)cc3)C(c3cccc([N+](=O)[O-])c3)C2)cc1OC (stereo not shown) [Example 52, 3-(3,4-dimethoxyphenyl)-5-(3-nitrophenyl)-1-tosyl-4,5-dihydro-1H-pyrazole] | < 50%
COc1ccc(C2=NN(S(=O)(=O)c3ccccc3)C(c3cccc([N+](=O)[O-])c3)C2)cc1OC (stereo not shown) [Example 53, 3-(3,4-dimethoxyphenyl)-5-(3-nitrophenyl)-1-(phenylsulfonyl)-4,5-dihydro-1H-pyrazole] | < 50%
COc1ccc(C2=NN(S(=O)(=O)c3ccccc3)C(c3ccc(F)cc3)C2)cc1OC (stereo not shown) [Example 54, 3-(3,4-dimethoxyphenyl)-5-(4-fluorophenyl)-1-(phenylsulfonyl)-4,5-dihydro-1H-pyrazole] | < 50%
COc1ccc(C2=NN(S(=O)(=O)c3ccc(C)cc3)C(c3ccc(F)cc3)C2)cc1OC (stereo not shown) [Example 55, 3-(3,4-dimethoxyphenyl)-5-(4-fluorophenyl)-1-tosyl-4,5-dihydro-1H-pyrazole] | < 50%
COc1ccc(C2=NN(S(=O)(=O)c3ccc(C)cc3)C(c3ccc(C)cc3)C2)cc1OC (stereo not shown) [Example 57, 3-(3,4-dimethoxyphenyl)-5-p-tolyl-1-tosyl-4,5-dihydro-1H-pyrazole] | < 50%
COc1ccc(C2=NN(S(=O)(=O)c3ccccc3)C(c3ccccc3F)C2)cc1OC (stereo not shown) [Example 58, 3-(3,4-dimethoxyphenyl)-5-(2-fluorophenyl)-1-(phenylsulfonyl)-4,5-dihydro-1H-pyrazole] | < 50%
COc1ccc(C2=NN(S(=O)(=O)c3ccccc3)C(c3ccccc3Cl)C2)cc1OC (stereo not shown) [Example 59, 5-(2-chlorophenyl)-3-(3,4-dimethoxyphenyl)-1-(phenylsulfonyl)-4,5-dihydro-1H-pyrazole] | < 50%
COc1ccc(C2=NN(S(=O)(=O)c3ccc(C)cc3)C(c3ccccc3Cl)C2)cc1OC (stereo not shown) [Example 60, 5-(2-chlorophenyl)-3-(3,4-dimethoxyphenyl)-1-tosyl-4,5-dihydro-1H-pyrazole] | < 50%
COc1ccc(C2=NN(S(=O)(=O)c3ccccc3)C(c3ccccc3OC)C2)cc1OC (stereo not shown) [Example 61, 3-(3,4-dimethoxyphenyl)-5-(2-methoxyphenyl)-1-(phenylsulfonyl)-4,5-dihydro-1H-pyrazole] | < 50%
COc1ccc(OC)c(C2CC(c3ccc(OC)c(OC)c3)=NN2C(=O)CCCC(=O)O)c1 (stereo not shown) [Example 64, 5-(5-(2,5-dimethoxyphenyl)-3-(3,4-dimethoxyphenyl)-4,5-dihydro-1H-pyrazol-1-yl)-5-oxopentanoic acid] | < 50%
COc1ccc(C2=NN(C(=O)CCCC(=O)O)C(c3ccc(F)cc3)C2)cc1OC (stereo not shown) [Example 65, 5-(3-(3,4-dimethoxyphenyl)-5-(4-fluorophenyl)-4,5-dihydro-1H-pyrazol-1-yl)-5-oxopentanoic acid] | < 50%
COc1ccc(C2CC(c3ccc(OC)c(OC)c3)=NN2C(=O)CCCC(=O)O)cc1 (stereo not shown) [Example 66, 5-(3-(3,4-dimethoxyphenyl)-5-(4-methoxyphenyl)-4,5-dihydro-1H-pyrazol-1-yl)-5-oxopentanoic acid] | < 50%
COc1ccc(C2=NN(C(=O)CCCC(=O)O)C(c3ccccc3Cl)C2)cc1OC (stereo not shown) [Example 67, 5-(5-(2-chlorophenyl)-3-(3,4-dimethoxyphenyl)-4,5-dihydro-1H-pyrazol-1-yl)-5-oxopentanoic acid] | < 50%
COc1ccc(C2=NN(C(=O)CCC(=O)O)C(c3ccc(OC)c(OC)c3)C2)cc1OC (stereo not shown) [Example 68, 4-(3,5-bis(3,4-dimethoxyphenyl)-4,5-dihydro-1H-pyrazol-1-yl)-4-oxobutanoic acid] | < 50%
COc1ccc(C2=NN(C(=O)CCC(=O)O)C(c3cccc(OC)c3OC)C2)cc1OC (stereo not shown) [Example 69, 4-(5-(2,3-dimethoxyphenyl)-3-(3,4-dimethoxyphenyl)-4,5-dihydro-1H-pyrazol-1-yl)-4-oxobutanoic acid] | < 50%
COc1ccc(C2=NN(C(=O)CCC(=O)O)C(c3ccc(Cl)cc3)C2)cc1OC (stereo not shown) [Example 70, 4-(5-(4-chlorophenyl)-3-(3,4-dimethoxyphenyl)-4,5-dihydro-1H-pyrazol-1-yl)-4-oxobutanoic acid] | < 50%

Continued, values first:

inhibition at 10 µM | SMILES
< 50% | COc1ccc(C2=NN(C(=O)c3ccccc3Cl)C(c3ccccc3Cl)C2)cc1OC (stereo not shown) [Example 35, (2-chlorophenyl)(5-(2-chlorophenyl)-3-(3,4-dimethoxyphenyl)-4,5-dihydro-1H-pyrazol-1-yl)methanone]
≥ 50% | COc1ccc(C2CC(c3ccc(OC)c(OC)c3)=NN2C(=O)c2ccccc2)cc1 (stereo not shown) [Example 36, (3-(3,4-dimethoxyphenyl)-5-(4-methoxyphenyl)-4,5-dihydro-1H-pyrazol-1-yl)(phenyl)methanone]
< 50% | COc1ccc(C2=NN(C(=O)c3ccccc3)C(c3ccc(N(C)C)cc3)C2)cc1OC (stereo not shown) [Example 37, (3-(3,4-dimethoxyphenyl)-5-(4-(dimethylamino)phenyl)-4,5-dihydro-1H-pyrazol-1-yl)(phenyl)methanone]
< 50% | COc1ccc(C2=NN(C(=O)c3cccs3)C(c3ccccc3Cl)C2)cc1OC (stereo not shown) [Example 39, (5-(2-chlorophenyl)-3-(3,4-dimethoxyphenyl)-4,5-dihydro-1H-pyrazol-1-yl)(thiophen-2-yl)methanone]
≥ 50% | COc1ccc(C2CC(c3ccc(OC)c(OC)c3)=NN2C(=O)c2cccs2)cc1 (stereo not shown) [Example 41, (3-(3,4-dimethoxyphenyl)-5-(4-methoxyphenyl)-4,5-dihydro-1H-pyrazol-1-yl)(thiophen-2-yl)methanone]
≥ 50% | COc1ccc(C2=NN(C(=O)c3ccc(Br)o3)C(c3ccc(F)cc3)C2)cc1OC (stereo not shown) [Example 46, (5-bromofuran-2-yl)(3-(3,4-dimethoxyphenyl)-5-(4-fluorophenyl)-4,5-dihydro-1H-pyrazol-1-yl)methanone]
≥ 50% | COc1ccc(C2=NN(C(=O)c3ccc(Br)o3)C(c3ccc(Cl)cc3)C2)cc1OC (stereo not shown) [Example 47, (5-bromofuran-2-yl)(5-(4-chlorophenyl)-3-(3,4-dimethoxyphenyl)-4,5-dihydro-1H-pyrazol-1-yl)methanone]
≥ 50% | COc1ccc(C2=NN(C(=O)c3ccc(Br)o3)C(c3ccc(C)cc3)C2)cc1OC (stereo not shown) [Example 48, (5-bromofuran-2-yl)(3-(3,4-dimethoxyphenyl)-5-p-tolyl-4,5-dihydro-1H-pyrazol-1-yl)methanone]
≥ 50% | COc1ccc(C2=NN(C(=O)c3ccc(Br)o3)C(c3ccccc3F)C2)cc1OC (stereo not shown) [Example 49, (5-bromofuran-2-yl)(3-(3,4-dimethoxyphenyl)-5-(2-fluorophenyl)-4,5-dihydro-1H-pyrazol-1-yl)methanone]
< 50% | COc1ccc(C2=NN(C(=O)c3ccc(Br)o3)C(c3ccccc3Cl)C2)cc1OC (stereo not shown) [Example 50, (5-bromofuran-2-yl)(5-(2-chlorophenyl)-3-(3,4-dimethoxyphenyl)-4,5-dihydro-1H-pyrazol-1-yl)methanone]
≥ 50% | COc1ccc(C2=NN(C(=O)c3ccc(Br)o3)C(c3ccccc3)C2)cc1OC (stereo not shown) [Example 51, (5-bromofuran-2-yl)(3-(3,4-dimethoxyphenyl)-5-phenyl-4,5-dihydro-1H-pyrazol-1-yl)methanone]
< 50% | COc1ccc(C2=NN(S(=O)(=O)c3ccccc3)C(c3ccc(C)cc3)C2)cc1OC (stereo not shown) [Example 56, 3-(3,4-dimethoxyphenyl)-1-(phenylsulfonyl)-5-p-tolyl-4,5-dihydro-1H-pyrazole]
< 50% | COc1ccc(C2=NN(S(=O)(=O)c3ccc(C)cc3)C(c3ccccc3)C2)cc1OC (stereo not shown) [Example 62, 3-(3,4-dimethoxyphenyl)-5-phenyl-1-tosyl-4,5-dihydro-1H-pyrazole]
< 50% | COc1ccc(C2=NN(S(=O)(=O)c3ccccc3)C(c3ccccc3)C2)cc1OC (stereo not shown) [Example 63, 3-(3,4-dimethoxyphenyl)-5-phenyl-1-(phenylsulfonyl)-4,5-dihydro-1H-pyrazole]
